For one molecule, EC50 results are on record in ChEMBL document CHEMBL5725901, “[7,6]-fused bicyclic antidiabetic compounds” (2018).

The test addresses Free fatty acid receptor 1 (Homo sapiens, UniProt O14842). Description: FLIPR Assay: FLIPR (Fluorimetric Imaging Plate Reader, Molecular Devices) assays were performed to measure agonist-induced calcium mobilization of the stable clones. For the FLIPR assay, one day before assay, GPR40/CHO NFAT BLA cells were seeded into black-wall-clear-bottom 384-well plates (Costar) at 1.4×10e4 cells/20 μL medium/well. The cells were incubated with 20 μl/well of the assay buffer (HBSS, 0.1% BSA, 20 mM HEPES, 2.5 mM probenecid, pH 7.4) containing 8 μM fluo-4,AM, 0.08% pluronic acid at room temperature for 100 minutes. Fluorescence output was measured using FLIPR. Compounds were dissolved in DMSO and diluted to desired concentrations with assay buffer. 13.3 μL/well of compound solution was added. On the technique in general: A change in cytosolic calcium serves as a functional read-out for many receptors and channels.

Chain of Free fatty acid receptor 1 (O14842 whole entry): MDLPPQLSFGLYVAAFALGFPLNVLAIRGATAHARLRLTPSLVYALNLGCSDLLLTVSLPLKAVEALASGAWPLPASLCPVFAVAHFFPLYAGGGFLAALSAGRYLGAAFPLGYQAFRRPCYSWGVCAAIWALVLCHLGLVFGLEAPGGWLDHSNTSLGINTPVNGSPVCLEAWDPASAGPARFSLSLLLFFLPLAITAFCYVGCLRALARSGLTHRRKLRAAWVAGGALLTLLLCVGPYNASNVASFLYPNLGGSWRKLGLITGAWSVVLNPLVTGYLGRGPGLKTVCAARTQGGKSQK

Broadly, the EC50 is the concentration giving half of the maximal effect. `Cc1cccc(C)c1-c1cccc(C2CCCc3cc(CCC(=O)O)ccc3O2)c1` (stereo unspecified): the EC50 came out at 3.3 µM.
